# Measured values: patent US8258296B2, “Crystalline antifungal compounds” (Palau Pharma, S.A., priority 2006, dated 2012)
# Legend:
# Format in all cases: physicochemical
# [1] = Solid-form conversion on extended storage; settings: storage for 3 months at 40° C. and 75% RH
# Text: (§1) Accordingly, the present subject matter relates to methods of identifying, obtaining, and purifying the various crystalline forms of (1R,2R)-7-chloro-3-[2-(2,4-difluorophenyl)-2-hydroxy-1-methyl-3-(1H-1,2,4-triazol-1-yl)propyl]quinazolin-4(3H)-one. These crystalline forms, namely Forms I-VI, were identified as six distinct crystal forms. Certain physical characteristics of these crystalline forms generated during crystallization studies, are as follows: • Form I: typically obtained by crystallizing the amorphous form using supercritical CO2 crystallization conditions. […] Diethyl ether can then be optionally added. […] Form V can best be characterized as a crystalline phase containing between about 2 and about 7% by weight of ethyl acetate and about 0.5 to about 2.5% by weight of hexane. • Form VI: typically obtained by slurrying (1R,2R)-7-chloro-3-[2-(2,4-difluorophenyl)-2-hydroxy-1-methyl-3-(1H-1,2,4-triazol-1-yl)propyl]quinazolin-4(3H)-one in aqueous ethanol or by slowly cooling a saturated aqueous ethanol solution that was seeded. This form may be obtained when the slurry comprises any other Form of (1R,2R)-7-chloro-3-[2-(2,4-difluorophenyl)-2-hydroxy-1-methyl-3-(1H-1,2,4-triazol-1-yl)propyl]quinazolin-4(3H)-one, such as, for example, the amorphous form, Form III, Form IV, Form V, or combinations thereof. […]
# [2] = Storage stability, detection of degradation products
# Text: as §1
# [3] = Slurry experiment to estimate rate of conversion of Form III to Form VI (XRPD); settings: slurry at 45° C. in ethanol-water (1:9), seeded with Form VI, XRPD analysis
# Description: Form VI may be prepared by slurrying albaconazole in aqueous ethanol or by slowly cooling a saturated aqueous ethanol solution that was seeded. In order to estimate rate of conversion, a slurry experiment of Form III was setup at 45° C. in ethanol-water (1:9), seeded with Form VI and aliquots periodically removed. Solids from the first aliquot removed after ˜3 hours were composed of only Form VI by XRPD analysis. A slow cool method was also attempted by cooling a saturated solution of albaconazole in aqueous ethanol that was seeded. Form VI solids were isolated in a 41% yield.
# [4] = Hygroscopicity characterisation
degradation products detected after storage ([2]; 6 months of storage at 25° C./60% RH),degradation products detected after storage ([2]; 6 months of storage at 30° C./65% RH),time to complete conversion of slurry to Form VI [3] [h],hygroscopicity [4],Structure (SMILES),conversion of the original form to Form IV on storage [1]
No degradation products,No degradation products,~3,,"C[C@@H](n1cnc2cc(Cl)ccc2c1=O)[C@](O)(Cn1cncn1)c1ccc(F)cc1F [Form III, (1R,2R)-7-chloro-3-[2-(2,4-difluorophenyl)-2-hydroxy-1-methyl-3-(1H-1,2,4-triazol-1-yl)propyl]quinazolin-4(3H)-one]",some but not all of the original form converts to Form IV
,,,non-hygroscopic,"C[C@@H](n1cnc2cc(Cl)ccc2c1=O)[C@](O)(Cn1cncn1)c1ccc(F)cc1F [Form VI, (1R,2R)-7-chloro-3-[2-(2,4-difluorophenyl)-2-hydroxy-1-methyl-3-(1H-1,2,4-triazol-1-yl)propyl]quinazolin-4(3H)-one]",
